Consider seven compounds from paper PMC2637613 (Basic & clinical pharmacology & toxicology, 2008).

pIC50: −log10 of the molar value. Where a name gives a salt, the structure may show the parent alone.

In data set [1] the target is T1, BCRP (Homo sapiens, UniProt Q9UNQ0).
T1 sequence (Q9UNQ0 1-655): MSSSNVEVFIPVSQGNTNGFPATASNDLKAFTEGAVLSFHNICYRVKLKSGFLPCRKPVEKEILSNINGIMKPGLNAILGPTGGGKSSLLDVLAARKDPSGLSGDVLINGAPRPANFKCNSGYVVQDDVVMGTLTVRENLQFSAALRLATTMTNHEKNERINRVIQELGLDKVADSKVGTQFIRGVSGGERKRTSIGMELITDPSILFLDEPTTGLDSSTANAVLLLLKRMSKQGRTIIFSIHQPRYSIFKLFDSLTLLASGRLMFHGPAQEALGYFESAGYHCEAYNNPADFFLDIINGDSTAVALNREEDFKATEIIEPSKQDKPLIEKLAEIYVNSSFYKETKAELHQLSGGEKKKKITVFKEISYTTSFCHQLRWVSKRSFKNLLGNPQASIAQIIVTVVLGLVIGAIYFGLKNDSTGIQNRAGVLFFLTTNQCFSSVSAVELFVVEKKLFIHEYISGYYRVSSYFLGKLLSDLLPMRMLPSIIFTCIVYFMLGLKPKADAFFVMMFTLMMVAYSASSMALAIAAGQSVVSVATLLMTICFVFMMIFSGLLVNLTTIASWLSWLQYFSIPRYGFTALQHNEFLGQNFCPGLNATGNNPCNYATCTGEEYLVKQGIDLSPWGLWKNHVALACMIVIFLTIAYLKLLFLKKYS
The data set can be described thus: cell-based.

The conditions of data set [2]: calculated from mean tissue to plasma AUC ratios; ref [16]; Aravagiri et al. 2002; Aravagiri et al. 1999; Manjunath and Venkateswarlu 2005; Hopenwasser et al. 2004; Sgaragli et al. 1995; Miyazaki et al. 1986; cited from earlier work.
The target in data set [3] is T1, BCRP. As to conditions: estimated liver concentration divided by BCRP IC50 in MCF7/MX100 cells.
The conditions of data set [4]: read-out: Cmax (mean maximal plasma concentration), patients, ref Aravagiri et al. 1998, Hiemke et al. 2004, Suzuki et al. 2001, Yeung et al. 1993; cited from earlier work.

In the case of `CN(C)CCCN1c2ccccc2Sc2ccc(Cl)cc21` [Chlorpromazine, chlorpromazine hydrochloride], the negative logarithm of the IC50 (pIC50) – broadly, the IC50 on a negative log10 scale, so that one unit is a factor of ten – against BCRP [1] is 4.28. In data set [2], the “Liver:plasma partition ratio” value is 97.7 ^9. Further, the “Cmax * liver:plasma partition ratio/IC50” value at BCRP [3] is 0.6. Besides, the Cmax in data set [4] is 300 nM.

The compound `CN1CCN(C2=Nc3cc(Cl)ccc3Nc3ccccc32)CC1` [Clozapine, clozapine] showed a pIC50 on BCRP [1] of 4.38. In addition, in data set [4], the Cmax was 2500 nM.

Turning to `O=C(CCCN1CCC(O)(c2ccc(Cl)cc2)CC1)c1ccc(F)cc1` [Haloperidol], the negative logarithm of the IC50 (pIC50) at BCRP [1] was less than 4.00. The Cmax in data set [4] is 50 nM.

Turning to `Cc1cc2c(s1)Nc1ccccc1N=C2N1CCN(C)CC1` [Olanzapine], in data set [4], the Cmax was 300 nM.

On to `Cc1nc2n(c(=O)c1CCN1CCC(c3noc4cc(F)ccc34)CC1)CCCC2O` (stereo not drawn) [Paliperidone, 9-hydroxy-risperidone], for which the pIC50 against BCRP [1] is 4.29. In addition, the “Liver:plasma partition ratio” value in data set [2] was 67.5 ^5. Moreover, the “Cmax * liver:plasma partition ratio/IC50” value at BCRP [3] is recorded as 0.5. Besides, in data set [4], the Cmax was 400 nM.

Compound `OCCOCCN1CCN(C2=Nc3ccccc3Sc3ccccc32)CC1` [Quetiapine, quetiapine] gave a pIC50 on BCRP [1] of 4.18. Besides, the “Liver:plasma partition ratio” value in data set [2] is 3.5–8.7 ^8. Further, at BCRP [3], the “Cmax * liver:plasma partition ratio/IC50” value is 0.04–0.10. Moreover, the Cmax in data set [4] was 800 nM.

As to `Cc1nc2n(c(=O)c1CCN1CCC(c3noc4cc(F)ccc34)CC1)CCCC2` [Risperidone], the Cmax in data set [4] is 400 nM.
